Laboratory results taken from US8580773B2, “Small-molecule inhibitors of the androgen receptor” (The Regents of the University of California, priority 2008, dated 2013).
“Also recorded” adds a separate entry of the source. Counter-ions that a name gives are not always drawn.

Assays:
LNCaP cells = experiment: Cell proliferation (DNA content, DAPI) in LNCaP cells; assay type: cell-based, human; conditions: 3 nM DHT, PP 100 nM, HH 100 nM, BiC 1 μM, seven days, hydrochloride
From the text: (§1) LN-AR cells were created by retroviral infection of a high-expressing AR vector into LNCaP cells, and proliferate independent of androgen in cell culture, unlike their parental line (Chen, C. D., et al., Molecular determinants of resistance to antiandrogen therapy. Nat Med, 2004. 10(1): p. 33-9). HEK293 cells were used as a control. Cells were transferred to charcoal-stripped media two days before they were split and plated in quadruplicate at a density of approximately 20,000 cells/well in 48-well plates. […] Media were changed every day, using a single preparation to ensure consistent compound concentrations. Proliferation was determined by measuring the DNA content of the cells in each well. Each day, the cells in four wells were fixed in 100% cold methanol, followed by staining for 5 min at RT with 0.2 ng/mL 4′,6-diamidino-2-phenylindole (DAPI) in PBS. The cells were washed once in PBS, then read on a fluorescence plate reader using 365/439 excitation/emission wavelengths. LAPC4 and LNCaP cells proliferated to a much greater degree in the presence of DHT, while LN-AR cells proliferated in the presence and absence of DHT.

LAPC4 cells = experiment: Cell proliferation (DNA content, DAPI) in LAPC4 cells; assay type: cell-based, human; conditions: 3 nM DHT, PP 100 nM, HH 100 nM, BiC 1 μM, seven days
From the text: as §1

HEK293 cells = experiment: Cell proliferation (DNA content, DAPI) in control HEK293 cells; assay type: cell-based; conditions: PP 100 nM, HH 100 nM, BiC 1 μM
From the text: as §1

human androgen receptor = biological target: T1, human androgen receptor (Homo sapiens, UniProt P10275); experiment: Screen of 1040 FDA-approved drugs and natural products for AR antagonists (MMTV-luciferase transcription assay and C-AR-Y FRET conformation assays); assay type: cell-based; conditions: test compounds at 10 μM, 10 nM DHT, 24 hours; validated by dose-response
T1 construct: expressed in transfected cells; host or cells: HEK293 and LAPC4 stably expressing C-AR-Y; HEK293 transiently transfected with native AR
T1 sequence (P10275 1-920): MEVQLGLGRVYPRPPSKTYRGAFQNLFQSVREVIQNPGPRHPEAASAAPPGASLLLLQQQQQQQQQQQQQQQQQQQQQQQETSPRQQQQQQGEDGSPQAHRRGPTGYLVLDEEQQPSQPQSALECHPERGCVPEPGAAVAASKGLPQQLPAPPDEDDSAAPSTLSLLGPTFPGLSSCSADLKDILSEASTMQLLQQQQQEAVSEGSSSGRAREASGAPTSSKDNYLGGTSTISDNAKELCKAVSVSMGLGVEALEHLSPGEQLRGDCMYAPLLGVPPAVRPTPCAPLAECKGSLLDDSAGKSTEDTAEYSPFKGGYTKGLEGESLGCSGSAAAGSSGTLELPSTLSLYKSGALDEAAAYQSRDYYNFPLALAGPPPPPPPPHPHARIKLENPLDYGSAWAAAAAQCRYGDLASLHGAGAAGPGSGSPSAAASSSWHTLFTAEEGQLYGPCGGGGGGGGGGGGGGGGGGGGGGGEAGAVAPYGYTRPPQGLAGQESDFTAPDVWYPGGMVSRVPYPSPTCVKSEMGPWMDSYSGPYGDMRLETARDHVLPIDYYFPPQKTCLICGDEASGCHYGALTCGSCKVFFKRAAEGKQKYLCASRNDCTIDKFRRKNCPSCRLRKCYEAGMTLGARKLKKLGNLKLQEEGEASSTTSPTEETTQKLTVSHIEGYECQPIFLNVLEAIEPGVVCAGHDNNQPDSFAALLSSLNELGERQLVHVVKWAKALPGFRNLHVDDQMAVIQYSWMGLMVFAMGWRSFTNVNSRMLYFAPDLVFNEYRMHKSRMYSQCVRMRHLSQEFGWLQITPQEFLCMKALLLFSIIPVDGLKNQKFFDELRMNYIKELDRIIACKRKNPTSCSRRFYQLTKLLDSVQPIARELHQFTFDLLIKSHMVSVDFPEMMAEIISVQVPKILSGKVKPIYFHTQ
Experimental: A library assembled by the NINDS was screened. The library consisted of 1040 FDA-approved drugs and natural products. A basic strategy to select and compare compounds from each of the primary screens was established (FIG. 1).
The transcription assay was conducted by transfecting 10 cm plates of HEK293 cells with plasmids encoding MMTV-luciferase, SV40-renilla luciferase, and native AR. […] FRET is fluorescence resonance energy transfer between cyan and yellow fluorescent protein derivatives (CFP, YFP) that are fused to the amino and carboxyl termini of the human androgen receptor. When ligand activates the receptor, a conformational change takes place that brings the CFP and YFP into close proximity, thereby allowing FRET to occur. This spectroscopic change is detected using a fluorescence plate reader.
For the transcription assay, transfected cells were pooled before being plated into 96-well dishes with the test compounds at 10 μM. […] Cell and compound transfers were accomplished with a liquid handling robot. Cells were cultured for 24 hours in the presence of 10 nM DHT and the test compounds. After 24 hours, cells were either lysed by freeze-thaw (transcription assay), or fixed in 4% paraformaldehyde for reading on the FPR (FRET assays). Each compound was tested in duplicate in the initial screen.
The compounds were sorted on the basis of anti-androgen effects. […] This eliminated situations in which one test gave a strong response, and the replicate had none. […] For the FRET assays, toxic compounds were easily detected because of their effect on raw CFP and YFP signal, and compounds that reduced this signal below two standard deviations were eliminated.
The top 50 compounds identified in each primary assay were then tested in the other two assays.

For `Cc1nccc2c1[nH]c1cc(O)ccc12` [HH, harmol hydrochloride], the “Inhibition of cell growth” value (LNCaP cells) was “inhibited significantly; also recorded: growth-inhibitory properties”, the “Inhibition of cell growth” value (LAPC4 cells) was “not effective” and the Non-specific growth inhibition (HEK293 cells) was “Neither compound exhibited non-specific growth inhibition”. The “Anti-androgen activity in screen” value (human androgen receptor) was “previously unrecognized anti-androgen activity”.
